Results: US20100022531A1, “NOVEL COMPOUNDS AS P2X7 MODULATORS AND USES THEREOF” (RENOVIS, INC., priority 2005, published 2010)

Target: T1, P2X7 receptor (Homo sapiens, UniProt Q99572)
T1 construct: host or cells: THP-1 cells differentiated with LPS and IFN-γ
T1 sequence (Q99572 1-595): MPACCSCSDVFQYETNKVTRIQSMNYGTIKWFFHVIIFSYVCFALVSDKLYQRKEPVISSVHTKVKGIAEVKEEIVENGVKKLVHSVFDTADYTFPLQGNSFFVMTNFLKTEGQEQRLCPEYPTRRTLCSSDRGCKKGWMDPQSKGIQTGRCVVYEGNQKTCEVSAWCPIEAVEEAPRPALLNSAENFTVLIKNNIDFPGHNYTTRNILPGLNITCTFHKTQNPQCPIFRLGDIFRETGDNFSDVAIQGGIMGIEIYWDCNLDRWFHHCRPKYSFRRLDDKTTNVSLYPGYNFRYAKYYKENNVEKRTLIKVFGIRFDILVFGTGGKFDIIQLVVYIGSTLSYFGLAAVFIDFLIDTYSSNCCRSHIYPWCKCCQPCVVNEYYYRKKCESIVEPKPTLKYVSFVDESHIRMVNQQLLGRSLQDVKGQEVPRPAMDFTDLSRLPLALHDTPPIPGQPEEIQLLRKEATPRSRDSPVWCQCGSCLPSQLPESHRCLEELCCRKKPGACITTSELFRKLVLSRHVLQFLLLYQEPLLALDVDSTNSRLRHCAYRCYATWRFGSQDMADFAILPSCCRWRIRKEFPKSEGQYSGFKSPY
Assay: Alternate method for IL-1β release assay (differentiated THP-1 cells, BzATP-stimulated, ELISA)
Type: cell-based
Details: P2X7; for inhibition at 0.3 µM: 0.3 μM compound (asterisk symbols), read-out: IL-1β % inhib @ 0.3 μM; for inhibition at 0.1 µM: 0.1 μM compound (plus symbols), read-out: IL-1β % inhib @ 0.1 μM
Procedure: Alternate Method for IL-1β Release Assay
THP-1 cells (ATCC Cat #285-IF-100) are plated in 96 well plates at a concentration of 200,000 cells per well and allowed to differentiate in RPMI-1640 media (ATCC Cat #30-2001) containing 10% FBS, 100 IU/mL penicillin, 100 ug/mL streptomycin, 100 ng/mL LPS and 100 ng/mL IFN-γ for 16 hours. Following differentiation, the cells are treated for an additional 2 hours in RPMI-1640 media containing 100 IU/mL penicillin, 100 ug/mL streptomycin and fresh LPS at 100 ng/mL. The cells are then pretreated for 30 minutes with the compound of interest at the appropriate concentration in RPMI media containing 100 IU/mL penicillin, 100 ug/mL streptomycin. Following the pretreatment 2′,3′-O-(4-benzoylbenzoyl)-adenosine 5′-triphosphate (Sigma Aldrich Cat# B6396) is added to a final concentration of 250 uM and the cells incubated for an additional 45 minutes. 30 uL of cell supernatant is then collected and IL-1β levels determined via ELISA (R&D systems Cat. # HSLB50) according to manufacturers recommendations using the Tecan Safire plate reader. Background adjusted IL-1β levels of drug treated and non-treated cells are used to calculate the percent inhibition.

Row | Compound | inhibition at 0.3 µM | inhibition at 0.1 µM
1 | O=S(=O)(c1cc(F)ccc1F)N1CCc2c(ncnc2NCC23CC4CC(CC(C4)C2)C3)C1 [Compound 60] | 25 to 50% | –
2 | O=S(=O)(c1cc(Cl)ccc1Cl)N1CCc2c(ncnc2NCC23CC4CC(CC(C4)C2)C3)C1 [Compound 61] | 50 to 75% | –
3 | O=S(=O)(c1cc(Cl)ccc1F)N1CCc2c(ncnc2NCC23CC4CC(CC(C4)C2)C3)C1 [Compound 62] | 25 to 50% | –
4 | O=S(=O)(c1c(F)cccc1F)N1CCc2c(ncnc2NCC23CC4CC(CC(C4)C2)C3)C1 [Compound 63] | > 75% | –
5 | Cc1ccc(S(=O)(=O)N2CCc3c(ncnc3NCC34CC5CC(CC(C5)C3)C4)C2)cc1Cl [Compound 64] | 25 to 50% | –
6 | O=S(=O)(c1cc(Cl)cc(Cl)c1)N1CCc2c(ncnc2NCC23CC4CC(CC(C4)C2)C3)C1 [Compound 65] | 0 to 25% | –
7 | O=S(=O)(c1ccc(F)cc1F)N1CCc2c(ncnc2NCC23CC4CC(CC(C4)C2)C3)C1 [Compound 66] | – | 25 to 50%
8 | O=S(=O)(c1c(Cl)cccc1Cl)N1CCc2c(ncnc2NCC23CC4CC(CC(C4)C2)C3)C1 [Compound 67] | > 75% | –
9 | O=S(=O)(c1ccc(F)cc1Cl)N1CCc2c(ncnc2NCC23CC4CC(CC(C4)C2)C3)C1 [Compound 68] | 0 to 25% | –
10 | Cc1ccc(F)cc1S(=O)(=O)N1CCc2c(ncnc2NCC23CC4CC(CC(C4)C2)C3)C1 [Compound 69] | 0 to 25% | –
11 | CC(C)S(=O)(=O)N1CCc2c(ncnc2NCC23CC4CC(CC(C4)C2)C3)C1 [Compound 70] | 50 to 75% | –
12 | COc1ccc(C)cc1S(=O)(=O)N1CCc2c(ncnc2NCC23CC4CC(CC(C4)C2)C3)C1 [Compound 71] | 25 to 50% | –
13 | COc1ccc(OC)c(S(=O)(=O)N2CCc3c(ncnc3NCC34CC5CC(CC(C5)C3)C4)C2)c1 [Compound 72] | 25 to 50% | –
14 | Cc1cc(C)cc(S(=O)(=O)N2CCc3c(ncnc3NCC34CC5CC(CC(C5)C3)C4)C2)c1 [Compound 73] | 0 to 25% | –
15 | N#Cc1ccccc1S(=O)(=O)N1CCc2c(ncnc2NCC23CC4CC(CC(C4)C2)C3)C1 [Compound 74] | 25 to 50% | –
16 | O=C(c1c(Cl)cccc1Cl)N1CCc2c(ncnc2NCC23CC4CC(CC(C4)C2)C3)C1 [Compound 75] | – | > 75%
17 | O=C(c1ccccc1)N1CCc2c(ncnc2NCC23CC4CC(CC(C4)C2)C3)C1 [Compound 77, {4-[(Adamantan-1-ylmethyl)-amino]-5,8-dihydro-6H-pyrido[3,4-d]pyrimidin-7-yl}-phenyl-methanone] | – | > 75%
18 | COc1ccc(CC(=O)N2CCc3c(ncnc3NCC34CC5CC(CC(C5)C3)C4)C2)cc1 [Compound 80] | > 75% | –
19 | O=C(Cc1ccccc1)N1CCc2c(ncnc2NCC23CC4CC(CC(C4)C2)C3)C1 [Compound 81] | 50 to 75% | –
20 | O=C(c1ccc(Cl)cc1)N1CCc2c(ncnc2NCC23CC4CC(CC(C4)C2)C3)C1 [Compound 82] | 25 to 50% | –

Row | Compound | inhibition at 0.3 µM | inhibition at 0.1 µM
21 | O=C(c1cccc(F)c1)N1CCc2c(ncnc2NCC23CC4CC(CC(C4)C2)C3)C1 [Compound 83] | – | > 75%
22 | O=C(c1ccc(OC(F)(F)F)cc1)N1CCc2c(ncnc2NCC23CC4CC(CC(C4)C2)C3)C1 [Compound 84] | 0 to 25% | –
23 | CCc1ccc(C(=O)N2CCc3c(ncnc3NCC34CC5CC(CC(C5)C3)C4)C2)cc1 [Compound 85] | 50 to 75% | –
24 | Cc1cccc(C(=O)N2CCc3c(ncnc3NCC34CC5CC(CC(C5)C3)C4)C2)c1 [Compound 86] | > 75% | –
25 | O=C(c1ccc(F)c(F)c1)N1CCc2c(ncnc2NCC23CC4CC(CC(C4)C2)C3)C1 [Compound 88] | > 75% | –
26 | O=C(c1cccc(C(F)(F)F)c1)N1CCc2c(ncnc2NCC23CC4CC(CC(C4)C2)C3)C1 [Compound 89] | 25 to 50% | –
27 | COc1ccc(C(=O)N2CCc3c(ncnc3NCC34CC5CC(CC(C5)C3)C4)C2)cc1 [Compound 90] | 0 to 25% | –
28 | O=C(C(c1ccccc1)c1ccccc1)N1CCc2c(ncnc2NCC23CC4CC(CC(C4)C2)C3)C1 [Compound 92] | 0 to 25% | –
29 | O=C(Cc1ccc(F)cc1)N1CCc2c(ncnc2NCC23CC4CC(CC(C4)C2)C3)C1 [Compound 96] | 50 to 75% | –
30 | N#Cc1cccc(C(=O)N2CCc3c(ncnc3NCC34CC5CC(CC(C5)C3)C4)C2)c1 [Compound 97] | – | > 75%
31 | O=C(c1ccc(C(F)(F)F)cc1)N1CCc2c(ncnc2NCC23CC4CC(CC(C4)C2)C3)C1 [Compound 98] | 25 to 50% | –
32 | O=C(c1ccc(Cl)c(Cl)c1)N1CCc2c(ncnc2NCC23CC4CC(CC(C4)C2)C3)C1 [Compound 100] | 25 to 50% | –
33 | COc1cc(OC)cc(C(=O)N2CCc3c(ncnc3NCC34CC5CC(CC(C5)C3)C4)C2)c1 [Compound 101] | 0 to 25% | –
34 | O=C(c1c(F)cccc1F)N1CCc2c(ncnc2NCC23CC4CC(CC(C4)C2)C3)C1 [Compound 102] | 50 to 75% | –
35 | O=C(CCc1ccccc1)N1CCc2c(ncnc2NCC23CC4CC(CC(C4)C2)C3)C1 [Compound 103] | > 75% | –
36 | O=C(COc1ccccc1)N1CCc2c(ncnc2NCC23CC4CC(CC(C4)C2)C3)C1 [Compound 104] | – | 50 to 75%
37 | COc1cccc(C(=O)N2CCc3c(ncnc3NCC34CC5CC(CC(C5)C3)C4)C2)c1 [Compound 105] | – | 25 to 50%
38 | O=C(c1ccc(F)cc1)N1CCc2c(ncnc2NCC23CC4CC(CC(C4)C2)C3)C1 [Compound 106] | – | > 75%
39 | CC(C)(C)C(=O)N1CCc2c(ncnc2NCC23CC4CC(CC(C4)C2)C3)C1 [Compound 107] | 50 to 75% | –
40 | O=C(c1cccc(Cl)c1)N1CCc2c(ncnc2NCC23CC4CC(CC(C4)C2)C3)C1 [Compound 108] | > 75% | –

Row | Compound | inhibition at 0.3 µM | inhibition at 0.1 µM
41 | O=C(COCc1ccccc1)N1CCc2c(ncnc2NCC23CC4CC(CC(C4)C2)C3)C1 [Compound 111] | > 75% | –
42 | O=C(c1ccc(Cl)cc1Cl)N1CCc2c(ncnc2NCC23CC4CC(CC(C4)C2)C3)C1 [Compound 113] | > 75% | –
43 | O=C(C1CC1)N1CCc2c(ncnc2NCC23CC4CC(CC(C4)C2)C3)C1 [Compound 115, 4-[(Adamantan-1-ylmethyl)-amino]-5,8-dihydro-6H-pyrido[3,4-d]pyrimidin-7-yl-cyclopropyl-methanone] | – | > 75%
44 | COc1cccc(CC(=O)N2CCc3c(ncnc3NCC34CC5CC(CC(C5)C3)C4)C2)c1 [Compound 116] | 25 to 50% | –
45 | O=C(COc1ccc(Cl)cc1)N1CCc2c(ncnc2NCC23CC4CC(CC(C4)C2)C3)C1 [Compound 119] | 25 to 50% | –
46 | O=C(Cc1ccc(Cl)cc1)N1CCc2c(ncnc2NCC23CC4CC(CC(C4)C2)C3)C1 [Compound 120] | 25 to 50% | –
47 | O=C(c1ccc(C(F)(F)F)cc1F)N1CCc2c(ncnc2NCC23CC4CC(CC(C4)C2)C3)C1 [Compound 121] | 25 to 50% | –
48 | O=C(c1cc(F)cc(C(F)(F)F)c1)N1CCc2c(ncnc2NCC23CC4CC(CC(C4)C2)C3)C1 [Compound 122] | 0 to 25% | –
49 | O=C(c1cc(C(F)(F)F)ccc1Cl)N1CCc2c(ncnc2NCC23CC4CC(CC(C4)C2)C3)C1 [Compound 126] | 0 to 25% | –
50 | O=C(c1c(F)cccc1Cl)N1CCc2c(ncnc2NCC23CC4CC(CC(C4)C2)C3)C1 [Compound 127] | > 75% | –
51 | Cc1nn(-c2ccccc2)nc1C(=O)N1CCc2c(ncnc2NCC23CC4CC(CC(C4)C2)C3)C1 [Compound 128] | > 75% | –
52 | O=C(c1cccnc1Oc1ccccc1)N1CCc2c(ncnc2NCC23CC4CC(CC(C4)C2)C3)C1 [Compound 129] | > 75% | –
53 | O=C(c1ccc(F)cc1F)N1CCc2c(ncnc2NCC23CC4CC(CC(C4)C2)C3)C1 [Compound 132] | 50 to 75% | –
54 | Cc1ccccc1C(=O)N1CCc2c(ncnc2NCC23CC4CC(CC(C4)C2)C3)C1 [Compound 133] | 25 to 50% | –
55 | O=C(c1cc(F)ccc1F)N1CCc2c(ncnc2NCC23CC4CC(CC(C4)C2)C3)C1 [Compound 134] | > 75% | –
56 | O=C(c1ccccc1F)N1CCc2c(ncnc2NCC23CC4CC(CC(C4)C2)C3)C1 [Compound 135] | – | 50 to 75%
57 | O=C(c1ccc(Cl)nc1)N1CCc2c(ncnc2NCC23CC4CC(CC(C4)C2)C3)C1 [Compound 136] | 0 to 25% | –
58 | O=C(c1cccc(Cl)c1Cl)N1CCc2c(ncnc2NCC23CC4CC(CC(C4)C2)C3)C1 [Compound 137] | > 75% | –
